Tests used:
[1] = molecular target: T1, recombinant human Cox-1 (r-hu Cox1) (Homo sapiens, UniProt P23219); test: Recombinant human PGHS-1 enzyme assay (RHUCX1); format: biochemical
T1 construct: made in house; host or cells: baculovirus/Sf9 insect cells (microsomes)
Experimental: (§1) To compare the mean responses of the treatment groups, analysis of variance was applied. Percent inhibition values were determined by comparing the individual treatment mean values to the mean of the control group. Linear regression was used to estimate IC50's/ED50's in appropriate assays.
(§2) EIA reagents for prostaglandin determination were purchased from Perseptive Diagnostics, (Cambridge, Mass.). Prostaglandin E2 (PGE2) levels in lavage fluids were determined after the samples were dried under nitrogen and reconstituted with assay buffer. PGE2 levels in enzyme assays or cell culture media were measured against standards prepared in the same milieu. The immunoassays were conducted as recommended by the manufacturer. The EIA was conducted in 96 well microtiter plates (Nunc Roskilde, Denmark) and optical density was measured using a microplate reader (Vmax, Molecular Devices Corp., Menlo Park, Calif.).
(§3) Inhibition of prostaglandin biosynthesis in vitro was evaluated using recombinant human Cox-1 (r-hu Cox1) and Cox-2 (r-hu Cox-2) enzyme assays. […] The reaction was allowed to run for 2.5 minutes at room temperature prior to quenching with HCl and neutralization with NaOH. PGE2 production in the presence and absence of the drug was determined by EIA analysis. The EIA was conducted in 96 well microtiter plates (Nunc Roskilde, Denmark) and optical density was measured using a microplate reader (Vmax, Molecular Devices Corp., Menlo Park, Calif.). EIA reagents for prostaglandin determination were purchased from Perseptive Diagnostics (Cambridge, Mass.). PGE2 levels were measured against standards prepared in the same milieu. The immunoassays were conducted as recommended by the manufacturer.

[2] = molecular target: T2, recombinant human Cox-2 (r-hu Cox-2) (Homo sapiens, UniProt P35354); test: Recombinant human PGHS-2 enzyme assay (RHUCX2); format: biochemical; conditions: for IC50: read-out: RHUCX2 IC50 (parenthetical value)
T2 construct: made in house; host or cells: baculovirus/Sf9 insect cells (microsomes)
T2 sequence (P35354 18-604): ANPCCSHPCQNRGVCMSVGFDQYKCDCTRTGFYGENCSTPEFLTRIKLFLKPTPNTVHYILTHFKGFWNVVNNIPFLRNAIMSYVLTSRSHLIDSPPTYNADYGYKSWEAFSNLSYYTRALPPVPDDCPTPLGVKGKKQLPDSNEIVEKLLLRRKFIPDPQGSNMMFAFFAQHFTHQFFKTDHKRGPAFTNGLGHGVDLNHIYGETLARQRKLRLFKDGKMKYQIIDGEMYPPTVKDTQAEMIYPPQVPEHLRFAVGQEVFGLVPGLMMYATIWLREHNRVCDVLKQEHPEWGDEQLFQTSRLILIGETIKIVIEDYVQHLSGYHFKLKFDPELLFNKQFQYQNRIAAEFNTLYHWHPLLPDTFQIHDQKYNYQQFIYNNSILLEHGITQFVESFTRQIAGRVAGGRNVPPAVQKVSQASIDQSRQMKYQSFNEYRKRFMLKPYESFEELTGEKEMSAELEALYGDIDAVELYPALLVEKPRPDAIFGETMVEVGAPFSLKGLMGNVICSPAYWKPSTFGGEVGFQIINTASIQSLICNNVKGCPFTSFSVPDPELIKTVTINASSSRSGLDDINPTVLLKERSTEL
Experimental: as §1, §2, §3

T1 sequence (P23219 24-599): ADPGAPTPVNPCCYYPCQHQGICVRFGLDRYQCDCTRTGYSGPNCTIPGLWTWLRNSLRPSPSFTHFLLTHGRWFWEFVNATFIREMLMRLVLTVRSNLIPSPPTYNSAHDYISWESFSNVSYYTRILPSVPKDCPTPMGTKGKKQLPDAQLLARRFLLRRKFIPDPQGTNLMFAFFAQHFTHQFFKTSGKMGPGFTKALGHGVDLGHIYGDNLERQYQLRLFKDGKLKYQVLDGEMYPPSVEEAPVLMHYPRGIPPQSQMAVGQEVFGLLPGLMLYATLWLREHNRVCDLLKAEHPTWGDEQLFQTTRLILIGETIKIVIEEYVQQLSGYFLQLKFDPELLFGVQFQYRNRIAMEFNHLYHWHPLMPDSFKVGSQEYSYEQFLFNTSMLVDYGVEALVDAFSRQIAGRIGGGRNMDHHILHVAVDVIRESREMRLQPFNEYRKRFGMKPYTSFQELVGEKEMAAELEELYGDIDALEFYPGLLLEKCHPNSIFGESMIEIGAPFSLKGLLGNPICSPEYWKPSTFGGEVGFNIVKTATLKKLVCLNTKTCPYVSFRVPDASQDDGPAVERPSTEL

Compound | RHUCX1 % Inh. at Dose (μM) ([1]; 100 μM) | RHUCX2 % Inh. at Dose (μM) ([2]; 0.1 μM) | melting point [°C] | other results
2-(2,2,2-Trifluoroethyl)-4-(4-methoxyphenoxy)-5-[4-(methylsulfonyl)phenyl]-3(2H)-pyridazinone [Example 262] | 15 @ 100% |  |  | IC50 [2]: 432 nM
2-(2-Hexyl)-4-(4-fluorophenyl)-5-[4-(methylsulfonyl)phenyl]-3(2H)-pyridazinone [Example 118] | 31 @ 100% | 72 @ 0.1% |  | RHUCX2 % Inh. at Dose (μM) ([2]; 0.01 μM): 17 @ 0.01%
C=C(C)Cn1ncc(-c2ccc(S(C)(=O)=O)cc2)c(-c2ccc(F)cc2)c1=O [Example 23, 2-(Methyl-2-propenyl)-4-(4-fluorophenyl)-5-[4-(methylsulfonyl)phenyl]-3(2H)-pyridazinone] | 0 @ 100% | 68 @ 0.1% |  | RHUCX2 % Inh. at Dose (μM) ([2]; 0.01 μM): 27 @ 0.01%
CS(=O)(=O)c1ccc(-c2cnn(CC(=O)c3ccc(F)cc3F)c(=O)c2-c2ccc(F)cc2)cc1 [Example 41, 2-(2,4-Difluorophenacyl)-4-(4-fluorophenyl)-5-[4-(methylsulfonyl)phenyl]-3(2H)-pyrdazinone] | 13 @ 100% | 17 @ 0.1% |  | RHUCX2 % Inh. at Dose (μM) ([2]; 1 μM): 49 @ 1%
CS(=O)(=O)c1ccc(-c2cnn(Cc3ccc(Cl)s3)c(=O)c2-c2ccc(F)cc2)cc1 [Example 42] | 0 @ 100% | 92 @ 0.1% |  | RHUCX2 % Inh. at Dose (μM) ([2]; 1 μM): 99 @ 1%
CS(=O)(=O)c1ccc(-c2cnn(CC(F)(F)F)c(=O)c2OC2CCCCC2)cc1 [Example 84] |  |  |  | RHUCX1 % Inh. at Dose (μM) ([1]; 1 μM): 9 @ 1%; RHUCX1 % Inh. at Dose (μM) ([1]; 10 μM): 49 @ 10%; RHUCX2 % Inh. at Dose (μM) ([2]; 0.3 μM): 87 @ 0.3%
CC(C)(O)CCOc1c(-c2ccc(S(N)(=O)=O)cc2)cnn(-c2ccc(F)c(Cl)c2)c1=O [Example 474, 2-(3-Chloro-4-fluorophenyl)-4-(3-hydroxy-3-methyl-1-butoxy)-5-[4-(aminosulfonyl)phenyl]-3(2H)-pyridazinone] |  |  | 59 to 62 | 
CC(C)(O)COc1c(-c2ccc(S(C)(=O)=O)cc2)cnn(-c2ccc(F)c(Cl)c2)c1=O [Example 479, 2-(3-Chloro-4-fluorophenyl)-4-(2-hydroxy-2-methyl-1-propoxy)-5-[4-(methylsulfonyl)phenyl]-3(2H)-pyridazinone] |  |  | 122 to 124 | 
CC(C)(O)COc1c(-c2ccc(S(N)(=O)=O)cc2)cnn(-c2ccc(F)c(Cl)c2)c1=O [Example 480, 2-(3-Chloro-4-fluorophenyl)-4-(2-hydroxy-2-methyl-1-propoxy)-5-[4-(aminosulfonyl)phenyl]-3(2H)-pyridazinone] |  |  | 176 to 178 | 
CC(C)(CO)COc1c(-c2ccc(S(C)(=O)=O)cc2)cnn(-c2ccc(F)c(F)c2)c1=O [Example 510, 2-(3,4-Difluorophenyl)-4-(3-hydroxy-2,2-dimethyl-1-propoxy)-5-[4-(methylsulfonyl)phenyl]-3(2H)-pyridazinone] |  |  | 161 to 162 | 
CC(C)(O)CCOc1c(-c2ccc(S(C)(=O)=O)cc2)cnn(-c2ccc(Cl)c(Cl)c2)c1=O [Example 532, 2-(3,4-Dichlorophenyl)-4-(3-hydroxy-3-methyl-1-butoxy)-5-[4-(methylsulfonyl)phenyl]-3(2H)-pyridazinone] |  |  | 118 to 120 | 
CC(C)COc1c(-c2ccc(S(C)(=O)=O)cc2)cnn(-c2ccc(F)c(Cl)c2)c1=O [Example 537, 2-(3-Chloro-4-fluorophenyl)-4-(2-methyl-1-propoxy)-5-[4-(methylsulfonyl)phenyl]-3(2H)-pyridazinone] |  |  | 116 to 120 | 
CC(C)CCOc1c(-c2ccc(S(C)(=O)=O)cc2)cnn(-c2ccc(F)c(Cl)c2)c1=O [Example 538, 2-(3-Chloro-4-fluorophenyl)-4-(3-methyl-1-butoxy)-5-[4-(methylsulfonyl)phenyl]-3(2H)-pyridazinone] |  |  | 148 to 152 | 
CC(C)COc1c(-c2ccc(S(C)(=O)=O)cc2)cnn(-c2ccc(Cl)c(Cl)c2)c1=O [Example 539, 2-(3,4-Dichlorophenyl)-4-(2-methyl-1-propoxy)-5-[4-(methylsulfonyl)phenyl]-3(2H)-pyridazinone] |  |  | 127 to 129 | 
CC(C)CCOc1c(-c2ccc(S(C)(=O)=O)cc2)cnn(-c2ccc(Cl)c(Cl)c2)c1=O [Example 540, 2-(3,4-Dichlorophenyl)-4-(3-methyl-1-butoxy)-5-[4-(methylsulfonyl)phenyl]-3(2H)-pyridazinone] |  |  | 130 to 134 | 
CS(=O)(=O)c1ccc(-c2cnn(-c3ccc(F)c(F)c3)c(=O)c2OCCCCO)cc1 [Example 541, 2-(3,4-Difluorophenyl)-4-(4-hydroxy-1-butoxy)-5-[4-(methylsulfonyl)phenyl]-3(2H)-pyridazinone] |  |  | 110 to 113 | 
CC(C)COc1c(-c2ccc(S(C)(=O)=O)cc2)cnn(-c2cccc(C(F)(F)F)c2)c1=O [Example 542, 2-[3-(Trifluoromethyl)phenyl]-4-(2-methyl-1-propoxy)-5-[4-(methylsulfonyl)phenyl]-3(2H)-pyridazinone] |  |  | 125 to 127 | 
CC(C)CCOc1c(-c2ccc(S(C)(=O)=O)cc2)cnn(-c2cccc(C(F)(F)F)c2)c1=O [Example 543, 2-[3-(Trifluoromethyl)phenyl]-4-(3-methyl-1-butoxy)-5-[4-(methylsulfonyl)phenyl]-3(2H)-pyridazinone] |  |  | 82 to 85 | 
CC(C)(O)CCOc1c(-c2ccc(S(C)(=O)=O)cc2)cnn(-c2cccc(C(F)(F)F)c2)c1=O [Example 544, 2-[3-(Trifluoromethyl)phenyl]-4-(3-hydroxy-3-methyl-1-butoxy)-5-[4-(methylsulfonyl)phenyl]-3(2H)-pyridazinone] |  |  | 90 to 93 | 
C[C@H](O)CCOc1c(-c2ccc(S(C)(=O)=O)cc2)cnn(-c2ccc(F)c(F)c2)c1=O [Example 546, (S)-2-(3,4-Difluorophenyl)-4-(3-hydroxy-1-butoxy)-5-[4-(methylsulfonyl)phenyl]-3(2H)-pyridazinone] |  |  | 128 to 130 | 

More lines, main results first:

RHUCX1 % Inh. at Dose (μM) ([1]; 100 μM) | RHUCX2 % Inh. at Dose (μM) ([2]; 0.1 μM) | Compound | melting point [°C] | other results
0 @ 100% | 0 @ 0.1% | 2-(3-Chlorophenyl)-4-(cyclopentylmethyl)-5-[4-(methylsulfonyl)phenyl]-3(2H)-pyridazinone [Example 364] |  | RHUCX2 % Inh. at Dose (μM) ([2]; 1 μM): 86 @ 1%
19 @ 100% |  | CS(=O)(=O)c1ccc(-c2cnn(CC#Cc3ccccc3)c(=O)c2-c2ccc(F)cc2)cc1 [Example 21, 2-(Phenylpropargyl)-4-(4-fluorophenyl)-5-[4-(methylsulfonyl)phenyl]-3(2H)-pyridazinone] |  | IC50 [2]: 920 nM
20 @ 100% | 83 @ 0.1% | CS(=O)(=O)c1ccc(-c2cnn(Cc3ccccc3)c(=S)c2-c2ccc(F)cc2)cc1 [Example 32, 2-Benzyl-4-(4-fluorophenyl)-5-[4-(methylsulfonyl)phenyl]-3(2H)-pridazinethione] |  | RHUCX2 % Inh. at Dose (μM) ([2]; 1 μM): 96 @ 1%
0 @ 100% | 2 @ 0.1% | C#CCn1ncc(-c2ccc(S(C)(=O)=O)cc2)c(-c2ccc(F)cc2)c1=O [Example 48, 2-(Propargyl)-4-(4-fluorophenyl)-5-[4-(methylsulfonyl)phenyl]-3(2H)-prridazinone] |  | RHUCX2 % Inh. at Dose (μM) ([2]; 1 μM): 73 @ 1%
7 @ 100% |  | CS(=O)(=O)c1ccc(-c2cnn(Cc3ccsc3)c(=O)c2-c2ccc(F)cc2)cc1 [Example 60] |  | RHUCX2 % Inh. at Dose (μM) ([2]; 1,000 μM): 100 @ 1,000%
 | 36 @ 0.1% | Cc1nn(CC(F)(F)F)c(=O)c(-c2ccc(F)cc2)c1-c1ccc(S(C)(=O)=O)cc1 [Example 64] |  | RHUCX1 % Inh. at Dose (μM) ([1]; 1 μM): 68 @ 1%; RHUCX2 % Inh. at Dose (μM) ([2]; 1 μM): 34 @ 1%
0 @ 100% | 35 @ 0.1% | CS(=O)(=O)c1ccc(-c2cnn(CC(F)=C(F)F)c(=O)c2-c2ccc(F)cc2)cc1 [Example 88] |  | RHUCX2 % Inh. at Dose (μM) ([2]; 1,000 μM): 97 @ 1,000%

From US20020028938A1, “Prostaglandin endoperoxide H synthase biosynthesis inhibitors” (priority 1997, published 2002)
